Measured values as given in patent US11771084B2, “Preservation of personal care compositions” (SHARON LABORATORIES LTD., priority 2018, dated 2023).
Converted amounts (≈) assume the structure as drawn. Read-outs that look alike come from different tables or passages of the source.

How the values were obtained:
S. aureus ATCC 6538 = test: MIC evaluation test; type: cell-based, Staphylococcus aureus
Experimental: (§1) The culture is standardized using standard microbiological techniques to have a concentration of very near 1 million cells per milliliter.
(§2) The antimicrobial agent is diluted a number of times, with Tryptic soy broth or sabouraud broth for fungi. After the antimicrobial agent had been diluted, a volume of the standardized inoculums was added to each dilution vessel, bringing the microbial concentration to approximately 1,000,000 cells per milliliter. The inoculated, serially diluted antimicrobial agent was incubated at an appropriate temperature for the test organism, 24 hours for bacteria 48 for yeast and 72 for mold.
(§3) MIC results are expressed in ppm.
(§4) The microorganism strains used for the test were E. coli ATCC 8739, P. aeruginosa ATCC 9027, S. aureus ATCC 6538, C. albicans ATCC 10231, A. niger ATCC 16404.

E. coli ATCC 8739 = test: MIC evaluation test; type: cell-based, Escherichia coli
Experimental: as §1, §2, §3, §4

P. aeruginosa ATCC 9027 = test: MIC evaluation test; type: cell-based, Pseudomonas aeruginosa
Experimental: as §1, §2, §3, §4

A. niger ATCC 16404 = test: MIC evaluation test; type: cell-based, Aspergillus brasiliensis (niger)
Experimental: In another exemplary procedure, MIC evaluation test with A. niger was performed in test tubes. Growth in this case is visually evaluated. A pure culture of a single microorganism was grown in Tryptic soy broth, or sabouraud broth for yeast and mold.
as §1, §2, §3, §4

C. albicans ATCC 10231 = test: MIC evaluation test; type: cell-based, Candida albicans
Experimental: In additional exemplary procedure, minimum inhibitory concentration (MIC) evaluation test with Candida albicans was performed in test tubes. Growth in this case is visually evaluated. A pure culture of a single microorganism was grown in Tryptic soy broth, or sabouraud broth for yeast and mold.
as §1, §2, §3, §4

[1] = Maltol shielding: absorbance at 410 nm, chelators, stainless steel 316; type: physicochemical; details: 0.5% solution of 90% Maltol and 10% Polyquaternium-80 in demineralized water, stainless steel 316 chip 12 hr
Source text: Maltol has a metal chelating property. It can bond with metal ions and form a chelate product that can be strongly colored. This reaction is highly likely to happen when maltol is used in a manufacturing process involving steel based equipment. It means that even small quantities of these chelates could induce an undesirable color in a finished cosmetic product. A way to inhibit this phenomenon would be to add to maltol a small quantity of a stronger chelating agent, in order to intercept possible metal ions before Maltol could do so. Thus, an examination of various chelating agents in order to “protect” the Maltol from chelating metal ions was done. Procedure: […]

[2] = formulation on stainless steel 304
Experimental: Procedure: To a 0.5% solution of 90% Maltol and 10% Polyquaternium-80 in demineralized water a chelating agent was added in concentrations of 25 ppm, 50 ppm, 100 ppm, 150 ppm, 200 ppm and 250 ppm, then a chip of stainless steel 316 (˜1×1 cm) was added to the solution for 12 hr.
The absorbance at 410 nm was measured with spectrophotometer Genesys 10uv (Thermo Scientific), the blank was a solution of 0.5% 90% Maltol and 10% Polyquaternium-80 in demineralized water.

[3] = Staphylococcus aureus, ATCC6538
[4] = Pseudomonas aeruginosa, ATCC9027

Compound | absorbance at 410 nm ([1]; chelator Concentration (%) 0.5) | absorbance at 410 nm ([1]; chelator Concentration (%) 1) | absorbance at 410 nm ([1]; chelator Concentration (%) 2) | absorbance at 410 nm ([1]; chelator Concentration (%) 3) | absorbance at 410 nm ([1]; chelator Concentration (%) 4) | absorbance at 410 nm ([1]; chelator Concentration (%) 5) | also measured
CCCCCCCCCCCC[N+](C)(C)C.[Cl-] [Dodecyltrimethylammonium chloride] | – | – | – | – | – | – | MIC (S. aureus ATCC 6538; [3]): < 60 µg/mL; MIC (E. coli ATCC 8739; Escherichia coli, ATCC8739): < 60 µg/mL; MIC (P. aeruginosa ATCC 9027; [4]): 360 µg/mL; MIC (A. niger ATCC 16404; Aspergillus niger, ATCC16404): 360 µg/mL; MIC (C. albicans ATCC 10231; Candida albicans, ATCC10231): < 60 µg/mL
CCCCCCCCCCCC[N+](C)(C)Cc1ccccc1.[Cl-] [Benzyldimethyldodecylammonium chloride] | – | – | – | – | – | – | MIC (S. aureus ATCC 6538; [3]): < 60 µg/mL; MIC (E. coli ATCC 8739; Escherichia coli, ATCC8739): < 60 µg/mL; MIC (P. aeruginosa ATCC 9027; [4]): 120 µg/mL; MIC (A. niger ATCC 16404; Aspergillus niger, ATCC16404): < 60 µg/mL; MIC (C. albicans ATCC 10231; Candida albicans, ATCC10231): < 60 µg/mL
Zinc gluconate | 0.231 | 0.136 | 0.207 | 0.096 | 0.147 | 0.058 | –
O=C(O)CCN(CC(=O)O)CC(=O)O [Beta Alanine diAcetic acid] | 0.133 | 0.039 | 0.045 | 0.124 | 0.067 | 0.098 | –
Cc1occc(=O)c1O [Maltol] | – | – | – | – | – | – | MIC (S. aureus ATCC 6538; Staphylococcus aureus, ATCC6538, read-out: MIC): 3800 µg/mL (≈ 30.1 mM); MIC (E. coli ATCC 8739; Escherichia coli, ATCC8739, read-out: MIC): 4000 µg/mL (≈ 31.7 mM); MIC (P. aeruginosa ATCC 9027; Pseudomonas aeruginosa, ATCC9027, read-out: MIC): < 1350 µg/mL; MIC (A. niger ATCC 16404; Aspergillus niger, ATCC16404, read-out: MIC): 3150 µg/mL (≈ 25 mM); MIC (C. albicans ATCC 10231; Candida albicans, ATCC10231, read-out: MIC): 2250 µg/mL (≈ 17.8 mM)
O=C([O-])[C@H](O)[C@@H](O)[C@H](O)[C@H](O)CO.[Na+] [Sodium gluconate] | 0.022 | 0.04 | 0.042 | 0.045 | 0.005 | 0.006 | –
CCCCCCCCCCCC(=O)N[C@@H](CCCN=C(N)N)C(=O)OCC [Ethyl Lauroyl Arginate] | – | – | – | – | – | – | MIC (S. aureus ATCC 6538): 500 ppm; MIC (E. coli ATCC 8739): 2500 ppm; MIC (P. aeruginosa ATCC 9027): 5000 ppm; MIC (A. niger ATCC 16404): 20000 ppm; MIC (C. albicans ATCC 10231): 10000 ppm
CCCCCCCCCC[N+](C)(C)CCCCCCCCCC.[Cl-] [Didecyldimethylammonium chloride] | – | – | – | – | – | – | MIC (S. aureus ATCC 6538; [3]): < 3 µg/mL; MIC (E. coli ATCC 8739; Escherichia coli, ATCC8739): < 3 µg/mL; MIC (P. aeruginosa ATCC 9027; [4]): 15 µg/mL; MIC (A. niger ATCC 16404; Aspergillus niger, ATCC16404): < 30 µg/mL; MIC (C. albicans ATCC 10231; Candida albicans, ATCC10231): < 30 µg/mL
O=C([O-])CN(CCN(CC(=O)O)CC(=O)O)CC(=O)[O-].[Na+].[Na+] [Disodium EDTA, Ethylenediaminetetraacetic acid disodium salt] | 0.022 | 0.009 | 0.004 | 0.002 | 0 | 0 | absorbance at 410 nm ([2]; chelator Concentration (%) 0.5): 0.061; absorbance at 410 nm ([2]; chelator Concentration (%) 1): 0.010; absorbance at 410 nm ([2]; chelator Concentration (%) 2): 0.026; absorbance at 410 nm ([2]; chelator Concentration (%) 3): 0.007; absorbance at 410 nm ([2]; chelator Concentration (%) 4): 0; absorbance at 410 nm ([2]; chelator Concentration (%) 5): 0

The next lines start with results.

absorbance at 410 nm ([1]; chelator Concentration (%) 0.5) | absorbance at 410 nm ([1]; chelator Concentration (%) 1) | absorbance at 410 nm ([1]; chelator Concentration (%) 2) | absorbance at 410 nm ([1]; chelator Concentration (%) 3) | absorbance at 410 nm ([1]; chelator Concentration (%) 4) | absorbance at 410 nm ([1]; chelator Concentration (%) 5) | Compound | also measured
0.073 | 0.044 | 0.386 | 0.226 | 0.078 | 0.12 | COc1cc(C(=O)[O-])ccc1O.[Na+] [Sodium vanillate] | –
0.037 | 0.053 | 0.062 | 0.05 | 0.159 | 0.048 | COc1cc(C=O)ccc1O [Vanillin] | –
0.182 | 0.162 | 0.145 | 0.155 | 0.101 | 0.06 | O=C1O[C@H]([C@@H](O)CO)C(O)=C1O [Ascorbic acid] | –
0.113 | 0.391 | 0.393 | 0.102 | 0.311 | 0.096 | CSCC[C@H](N)C(=O)O [L-Methionine] | –
